Measured values as given in the supplement of paper PMC11281043.

Legend:
Conditions in all cases: exposure: 6-8 hpf to 5 dpf, scored at 6 dpf
Danio rerio embryo/larva [1] = assay: max % larvae unhatched across tested concentrations; max tested concentration (log10 uM): 2; higher = more toxic
Danio rerio embryo/larva [2] = assay: max % larvae with any abnormality across tested concentrations; max tested concentration (log10 uM): 2; higher = more toxic; extreme values may be limits of the assay
Danio rerio embryo/larva [3] = assay: max % larvae dead across tested concentrations; max tested concentration (log10 uM): 2; higher = more toxic; extreme values may be limits of the assay
Danio rerio embryo/larva [4] = assay: max % larvae with spinal defects across tested concentrations; higher = more toxic; extreme values may be limits of the assay
Danio rerio embryo/larva [5] = assay: max % larvae with blood pooling across tested concentrations; higher = more toxic; extreme values may be limits of the assay
Danio rerio embryo/larva [6] = assay: max % larvae with uninflated swim bladder across tested concentrations; higher = more toxic; extreme values may be limits of the assay
Danio rerio embryo/larva [7] = assay: max % larvae generally abnormal across tested concentrations; higher = more toxic; extreme values may be limits of the assay
Danio rerio embryo/larva [8] = assay: max % larvae with pigmentation defects across tested concentrations; higher = more toxic
Danio rerio embryo/larva [9] = assay: max % larvae with abnormal position across tested concentrations; higher = more toxic; extreme values may be limits of the assay
Danio rerio embryo/larva [10] = assay: max % larvae with edema across tested concentrations; higher = more toxic; extreme values may be limits of the assay
Danio rerio embryo/larva [11] = assay: max % larvae with craniofacial defects across tested concentrations; higher = more toxic; extreme values may be limits of the assay
Danio rerio embryo/larva [12] = assay: max % larvae with tail defects across tested concentrations; higher = more toxic; extreme values may be limits of the assay

SMILES | max % larvae unhatched across tested concentrations (Danio rerio embryo/larva [1]) | max % larvae (Danio rerio embryo/larva [2]) | max % larvae dead across tested concentrations (Danio rerio embryo/larva [3]) | max % larvae (Danio rerio embryo/larva [4]) | max % larvae (Danio rerio embryo/larva [5]) | max % larvae (Danio rerio embryo/larva [6]) | max % larvae generally abnormal across tested concentrations (Danio rerio embryo/larva [7]) | max % larvae (Danio rerio embryo/larva [8]) | max % larvae (Danio rerio embryo/larva [9]) | max % larvae (Danio rerio embryo/larva [10]) | max % larvae (Danio rerio embryo/larva [11]) | max % larvae (Danio rerio embryo/larva [12])
O=C(O)C(F)(F)C(F)(F)C(F)(F)C(F)(F)C(=O)O [Perfluorohexanedioic acid] | 0% | 0% | 0% |  |  |  |  |  |  |  |  | 
OCCCC(F)(F)C(F)(F)C(F)(F)C(F)(F)C(F)(F)C(F)(F)C(F)(F)C(F)(F)F [3-(Perfluorooctyl)propanol] | 0% | 0% | 0% |  |  |  |  |  |  |  |  | 
O=C(O)C(F)(F)C(F)(F)C(F)(F)OC(F)(F)F [Perfluoro(4-methoxybutanoic acid)] | 0% | 0% | 0% |  |  |  |  |  |  |  |  | 
O=C(O)C(F)(F)OC(F)(F)C(F)(F)OC(F)(F)C(=O)O [Perfluoro-3,6-dioxaoctane-1,8-dioic acid] | 0% | 0% | 0% |  |  |  |  |  |  |  |  | 
O=C(Cl)C(F)(F)C(F)(F)C(F)(F)C(F)(F)C(F)(F)C(F)(F)F [Perfluoroheptanoyl chloride] | 0% | 16.7% | 0% |  |  |  |  |  |  |  |  | 
FC(F)(Br)C(F)(F)C(F)(F)C(F)(F)C(F)(F)C(F)(F)Br [1,6-Dibromododecafluorohexane] | 0% | 4.17% | 0% |  |  |  |  |  |  |  |  | 
CCOC(=O)CC(=O)C(F)(F)C(F)(F)F [Ethyl pentafluoropropionyl acetate] | 0% | 0% | 0% |  |  |  |  |  |  |  |  | 
O=C(O)C(F)(F)C(F)(F)C(F)(F)C(=O)O [Perfluoropentanedioic acid] | 0% | 0% | 0% |  |  |  |  |  |  |  |  | 
O=C(O)C(F)(F)C(F)(F)C(F)(F)C(F)(F)C(F)(F)C(F)(F)C(F)(F)F [Potassium perfluorooctanoate] | 0% | 16.7% | 16.7% |  |  |  |  |  |  |  |  | 
FC(F)(F)C(F)(F)C(F)(F)CC1CO1 (stereo not drawn) [1H,1H-Heptafluorobutyl epoxide] | 0% | 9.09% | 0% |  |  |  |  |  |  |  |  | 
OCC(F)(F)OC(F)(F)C(F)(F)OC(F)(F)CO [1H,1H,8H,8H-Perfluoro-3,6-dioxaoctane-1,8-diol] | 0% | 0% | 0% |  |  |  |  |  |  |  |  | 
OCC(F)(F)C(F)(F)C(F)(F)C(F)F [1H,1H,5H-Perfluoropentanol] | 0% | 16.7% | 16.7% |  |  |  |  |  |  |  |  | 
O=C(O)C=C(C(F)(F)F)C(F)(F)F [3,3-Bis(trifluoromethyl)-2-propenoic acid] | 0% | 2.08% | 0% |  |  |  |  |  |  |  |  | 
O=C(O)C(F)(F)OC(F)(F)C(F)(F)OC(F)(F)F [Perfluoro-3,6-dioxaheptanoic acid] | 0% | 4.17% | 0% |  |  |  |  |  |  |  |  | 
O=C(O)C(F)(F)C(F)(F)C(F)(F)C(F)(F)C(F)(F)C(F)(F)C(F)F [8H-Perfluorooctanoic acid] | 0% | 16.7% | 0% |  |  |  |  |  |  |  |  | 
O=S(=O)(O)CCC(F)(F)C(F)(F)C(F)(F)C(F)(F)C(F)(F)C(F)(F)C(F)(F)C(F)(F)F [8:2 Fluorotelomer sulfonic acid] (max tested concentration (log10 uM): 2) |  |  |  | 0% | 0% | 0% | 0% | 0% | 0% | 0% | 0% | 0%

SMILES | max % larvae unhatched across tested concentrations (Danio rerio embryo/larva [1]) | max % larvae (Danio rerio embryo/larva [2]) | max % larvae dead across tested concentrations (Danio rerio embryo/larva [3]) | max % larvae (Danio rerio embryo/larva [4]) | max % larvae (Danio rerio embryo/larva [5]) | max % larvae (Danio rerio embryo/larva [6]) | max % larvae generally abnormal across tested concentrations (Danio rerio embryo/larva [7]) | max % larvae (Danio rerio embryo/larva [8]) | max % larvae (Danio rerio embryo/larva [9]) | max % larvae (Danio rerio embryo/larva [10]) | max % larvae (Danio rerio embryo/larva [11]) | max % larvae (Danio rerio embryo/larva [12])
O=C(O)C(F)(F)C(F)(F)C(F)(F)C(F)(F)C(=O)O [Perfluorohexanedioic acid] (max tested concentration (log10 uM): 2) |  |  |  | 0% | 0% | 0% | 0% | 0% | 0% | 0% | 0% | 0%
O=C(O)C(F)(F)C(F)(F)C(F)(F)C(F)(F)F [Perfluoropentanoic acid] (max tested concentration (log10 uM): 2) |  |  |  | 0% | 0% | 16.7% | 16.7% | 0% | 4.17% | 16.7% | 0% | 0%
C=C(C)C(=O)OCCC(F)(F)C(F)(F)C(F)(F)C(F)(F)C(F)(F)C(F)(F)C(F)(F)C(F)(F)F [2-(Perfluorooctyl)ethyl methacrylate] (max tested concentration (log10 uM): 2) |  |  |  | 0% | 0% | 0% | 0% | 0% | 0% | 0% | 0% | 0%
O=C(O)C(F)(F)C(F)(F)C(F)(F)C(F)(F)C(F)(F)F [Perfluorohexanoic acid] (max tested concentration (log10 uM): 2) |  |  |  | 0% | 0% | 0% | 0% | 0% | 0% | 0% | 0% | 0%
C[N+](C)(C)CCCNS(=O)(=O)C(F)(F)C(F)(F)C(F)(F)C(F)(F)C(F)(F)C(F)(F)C(F)(F)C(F)(F)F (max tested concentration (log10 uM): 1.47712) |  |  |  | 0% | 0% | 25% | 50% | 0% | 12.5% | 50% | 50% | 0%
O=C(O)C(F)(F)C(F)(F)F [Perfluoropropanoic acid] (max tested concentration (log10 uM): 2) |  |  |  | 0% | 0% | 0% | 0% | 0% | 0% | 0% | 0% | 0%
C=CC(=O)OCC(F)(F)C(F)(F)C(F)(F)C(F)(F)C(F)(F)C(F)(F)C(F)(F)C(F)F [1H,1H,9H-Perfluorononyl acrylate] (max tested concentration (log10 uM): 2) |  |  |  | 0% | 0% | 16.7% | 9.09% | 0% | 4.55% | 9.09% | 9.09% | 2.27%
O=C(O)C(F)(F)C(F)(F)C(F)(F)C(F)(F)C(F)(F)C(F)(F)C(F)(F)C(F)(F)C(F)(F)C(F)(F)C(F)(F)C(F)(F)F [Perfluorotridecanoic acid] (max tested concentration (log10 uM): 1.30103) |  |  |  | 0% | 16.7% | 16.7% | 16.7% | 0% | 8.33% | 16.7% | 16.7% | 0%
C=C(C)C(=O)OCCC(F)(F)C(F)(F)C(F)(F)C(F)(F)C(F)(F)C(F)(F)F [2-(Perfluorohexyl)ethyl methacrylate] (max tested concentration (log10 uM): 2) |  |  |  | 0% | 0% | 0% | 0% | 0% | 0% | 0% | 0% | 0%
OCC(F)(F)OC(F)(F)C(F)(F)OC(F)(F)CO [1H,1H,8H,8H-Perfluoro-3,6-dioxaoctane-1,8-diol] (max tested concentration (log10 uM): 2) |  |  |  | 0% | 0% | 0% | 0% | 0% | 0% | 0% | 0% | 0%
NC(=O)C(F)(F)C(F)(F)C(F)(F)C(F)(F)C(N)=O [Octafluoroadipamide] (max tested concentration (log10 uM): 2) |  |  |  | 0% | 0% | 0% | 0% | 0% | 0% | 0% | 0% | 0%
CN(C(=O)C(F)(F)C(F)(F)C(F)(F)F)[Si](C)(C)C [N-Methyl-N-trimethylsilylheptafluorobutyramide] (max tested concentration (log10 uM): 2) |  |  |  | 0% | 0% | 0% | 0% | 0% | 0% | 0% | 0% | 0%
NC(=O)C(F)(F)C(F)(F)C(F)(F)C(F)(F)C(F)(F)C(F)(F)C(F)(F)F [Perfluorooctanamide] (max tested concentration (log10 uM): 2) |  |  |  | 0% | 0% | 0% | 0% | 0% | 0% | 0% | 0% | 0%
O=C(O)C(F)(F)C(F)(F)C(F)(F)C(F)(F)C(F)(F)C(F)(F)C(F)(F)F [Perfluorooctanoic acid] (max tested concentration (log10 uM): 2) |  |  |  | 0% | 0% | 16.7% | 16.7% | 0% | 8.33% | 16.7% | 0% | 4.17%
O=C(Cl)C(F)(F)C(F)(F)C(F)(F)C(F)(F)C(F)(F)C(F)(F)F [Perfluoroheptanoyl chloride] (max tested concentration (log10 uM): 2) |  |  |  | 8.33% | 0% | 16.7% | 16.7% | 0% | 4.17% | 16.7% | 16.7% | 8.33%
CCOC(=O)CC(=O)C(F)(F)C(F)(F)F [Ethyl pentafluoropropionyl acetate] (max tested concentration (log10 uM): 2) |  |  |  | 0% | 0% | 0% | 0% | 0% | 0% | 0% | 0% | 0%
